From patent publication US20240360178A1, “MACROCYCLIC IMMUNOMODULATORS” (Bristol-Myers Squibb Company, priority 2021, published 2024)
Positions of bridges follow the written chain, without caps; N, C: chain ends. Non-standard residues stand in square brackets, D forms with d. Residues, ends and D or L forms follow the SMILES beside them. Bip = N[C@@H](Cc1ccc(-c2ccccc2)cc1)C(=O)O; NMeF = CN[C@@H](Cc1ccccc1)C(=O)O; NMeA = CN[C@@H](C)C(=O)O; Dab = NCC[C@H](N)C(=O)O; Nva = CCC[C@H](N)C(=O)O; Dap = NC[C@H](N)C(=O)O; Aib = CC(C)(N)C(=O)O

Target: T1, human PD-1 (Jurkat-PD-1 cells) / PE-labeled human PD-L1-Ig (Homo sapiens, UniProt Q15116)
T1 construct: expressed in transfected cells; host or cells: Jurkat cell line over-expressing human PD-1
T1 sequence (Q15116 25-288): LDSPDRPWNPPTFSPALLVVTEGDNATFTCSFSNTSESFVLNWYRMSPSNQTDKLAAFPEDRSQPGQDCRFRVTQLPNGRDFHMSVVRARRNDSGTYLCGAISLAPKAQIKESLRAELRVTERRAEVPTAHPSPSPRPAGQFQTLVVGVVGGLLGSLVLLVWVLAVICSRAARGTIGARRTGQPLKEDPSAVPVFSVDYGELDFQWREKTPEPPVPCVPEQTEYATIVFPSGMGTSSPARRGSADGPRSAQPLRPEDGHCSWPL
Experiment: Jurkat-PD-1 Cell Binding High-Content Screening Assay (CBA); Jurkat hPD1-PDL1 assay
Conditions: Jurkat cell line over-expressing human PD-1; PE-labeled PD-L1-Ig 20 nM final; compound incubated 2 hours at 37° C.; read-out: Jurkat HPD1-PDL1 IC50
Outline: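 Read-out is high-content imaging of PE fluorescence on PD-1-over-expressing Jurkat cells. Cells are first exposed to compound for 2 hours at 37° C in serum-containing DMEM, after which PE-labeled PD-L1-Ig is added at 20 nM final.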

IC50 [nM]	Structure (SMILES)
380	CC(C)C[C@@H]1NC(=O)[C@H](CCCNC(=N)N)NC(=O)[C@H](Cc2ccccc2)N(C)C(=O)[C@H](C)N(C)C(=O)[C@H](CCCNC(=N)N)NC(=O)[C@H](Cc2ccc(-c3ccccc3)cc2)NC(=O)[C@H](C(C)C)NC(=O)[C@H](Cc2c[nH]c3ccccc23)NC(=O)[C@H](CC(=O)O)NC(=O)[C@H](Cc2ccc(O)cc2)NC(=O)[C@H](CC(N)=O)NC(=O)CSC[C@@H](C(=O)N[C@@H](C)C(N)=O)NC(=O)[C@H]([C@@H](C)O)NC(=O)[C@H](C(C)C)NC1=O [Example 1318] ({CH2CO}-NYDWV[Bip]R[NMeA][NMeF]RLVTCA-NH2; thioether N-14)
130	CC(C)C[C@@H]1NC(=O)CSC[C@@H](C(=O)N[C@@H](C)C(N)=O)NC(=O)[C@H]([C@@H](C)O)NC(=O)[C@H](C(C)C)NC(=O)[C@H](CC(C)C)NC(=O)[C@H](CCCNC(=N)N)NC(=O)[C@H](Cc2ccccc2)N(C)C(=O)[C@H](C)N(C)C(=O)[C@H](CCCNC(=N)N)NC(=O)[C@H](Cc2ccc(-c3ccccc3)cc2)NC(=O)[C@H](C(C)C)NC(=O)[C@H](Cc2c[nH]c3ccccc23)NC(=O)[C@H](CC(=O)O)NC(=O)[C@H](Cc2ccc(O)cc2)NC1=O [Example 1319] ({CH2CO}-LYDWV[Bip]R[NMeA][NMeF]RLVTCA-NH2; thioether N-14)
150	CC(C)C[C@@H]1NC(=O)[C@H](CCN)NC(=O)[C@H](Cc2ccccc2)N(C)C(=O)[C@H](C)N(C)C(=O)[C@H](CCCNC(=N)N)NC(=O)[C@H](Cc2ccc(-c3ccccc3)cc2)NC(=O)[C@H](C(C)C)NC(=O)[C@H](Cc2c[nH]c3ccccc23)NC(=O)[C@H](CC(=O)O)NC(=O)[C@H](Cc2ccc(O)cc2)NC(=O)[C@H](CC(N)=O)NC(=O)CSC[C@@H](C(=O)N[C@@H](C)C(N)=O)NC(=O)[C@H]([C@@H](C)O)NC(=O)[C@H](C(C)C)NC1=O [Example 1320] ({CH2CO}-NYDWV[Bip]R[NMeA][NMeF][Dab]LVTCA-NH2; thioether N-14)
110	CC(C)C[C@@H]1NC(=O)[C@H](CCN)NC(=O)[C@H](Cc2ccccc2)N(C)C(=O)[C@H](C)N(C)C(=O)[C@H](CCCNC(=N)N)NC(=O)[C@H](Cc2ccc(-c3ccccc3)cc2)NC(=O)[C@H](C(C)C)NC(=O)[C@H](Cc2c[nH]c3ccccc23)NC(=O)[C@H](CC(=O)O)NC(=O)[C@H](Cc2ccc(O)cc2)NC(=O)[C@H](Cc2cnc[nH]2)NC(=O)CSC[C@@H](C(=O)N[C@@H](C)C(N)=O)NC(=O)[C@H]([C@@H](C)O)NC(=O)[C@H](C(C)C)NC1=O [Example 1321] ({CH2CO}-HYDWV[Bip]R[NMeA][NMeF][Dab]LVTCA-NH2; thioether N-14)
510	CC(C)C[C@@H]1NC(=O)[C@H](CCCNC(=N)N)NC(=O)[C@H](Cc2ccccc2)N(C)C(=O)[C@H](C)N(C)C(=O)[C@H](CCCNC(=N)N)NC(=O)[C@H](Cc2ccc(-c3ccccc3)cc2)NC(=O)[C@H](C(C)C)NC(=O)[C@H](Cc2c[nH]c3ccccc23)NC(=O)[C@H](CC(=O)O)NC(=O)[C@H](Cc2ccc(O)cc2)NC(=O)[C@H](CCC(N)=O)NC(=O)CSC[C@@H](C(=O)N[C@@H](C)C(N)=O)NC(=O)[C@H]([C@@H](C)O)NC(=O)[C@H](C(C)C)NC1=O [Example 1323] ({CH2CO}-QYDWV[Bip]R[NMeA][NMeF]RLVTCA-NH2; thioether N-14)
270	CC(C)C[C@@H]1NC(=O)[C@H](CCCNC(=N)N)NC(=O)[C@H](Cc2ccccc2)N(C)C(=O)[C@H](C)N(C)C(=O)[C@H](CCCNC(=N)N)NC(=O)[C@H](Cc2ccc(-c3ccccc3)cc2)NC(=O)[C@H](C(C)C)NC(=O)[C@H](Cc2c[nH]c3ccccc23)NC(=O)[C@H](CC(=O)O)NC(=O)[C@H](Cc2ccc(O)cc2)NC(=O)[C@H](Cc2cnc[nH]2)NC(=O)CSC[C@@H](C(=O)N[C@@H](C)C(N)=O)NC(=O)[C@H]([C@@H](C)O)NC(=O)[C@H](C(C)C)NC1=O [Example 1324] ({CH2CO}-HYDWV[Bip]R[NMeA][NMeF]RLVTCA-NH2; thioether N-14)
150	CC(C)C[C@@H]1NC(=O)[C@H](CCN)NC(=O)[C@H](Cc2ccccc2)N(C)C(=O)[C@H](C)N(C)C(=O)[C@H](CCCNC(=N)N)NC(=O)[C@H](Cc2ccc(-c3ccccc3)cc2)NC(=O)[C@H](C(C)C)NC(=O)[C@H](Cc2c[nH]c3ccccc23)NC(=O)[C@H](CC(=O)O)NC(=O)[C@H](Cc2ccc(O)cc2)NC(=O)[C@H](CCC(N)=O)NC(=O)CSC[C@@H](C(=O)N[C@@H](C)C(N)=O)NC(=O)[C@H]([C@@H](C)O)NC(=O)[C@H](C(C)C)NC1=O [Example 1326] ({CH2CO}-QYDWV[Bip]R[NMeA][NMeF][Dab]LVTCA-NH2; thioether N-14)
80	CC(C)C[C@@H]1NC(=O)[C@H](CCCNC(=N)N)NC(=O)[C@H](Cc2ccccc2)N(C)C(=O)[C@H](C)N(C)C(=O)[C@H](CCCNC(=N)N)NC(=O)[C@H](Cc2ccc(-c3ccccc3)cc2)NC(=O)[C@H](C(C)C)NC(=O)[C@H](Cc2c[nH]c3ccccc23)NC(=O)[C@H](CC(=O)O)NC(=O)[C@H](Cc2ccc(O)cc2)NC(=O)[C@H](Cc2ccccc2)NC(=O)CSC[C@@H](C(=O)N[C@H](C)C(N)=O)NC(=O)[C@H](CO)NC(=O)[C@H](C(C)C)NC1=O [Example 1331] ({CH2CO}-FYDWV[Bip]R[NMeA][NMeF]RLVSC[dA]-NH2; thioether N-14)

Continued, compound first:

Structure (SMILES)	IC50 [nM]
CC(C)C[C@@H]1NC(=O)[C@H](CCN)NC(=O)[C@H](Cc2ccccc2)N(C)C(=O)[C@H](C)N(C)C(=O)[C@H](CCCNC(=N)N)NC(=O)[C@H](Cc2ccc(-c3ccccc3)cc2)NC(=O)[C@H](C(C)C)NC(=O)[C@H](Cc2c[nH]c3ccccc23)NC(=O)[C@H](CC(=O)O)NC(=O)[C@H](Cc2ccc(O)cc2)NC(=O)[C@H](Cc2ccccc2)NC(=O)CSC[C@@H](C(=O)N[C@@H](C)C(N)=O)NC(=O)[C@H]([C@@H](C)O)NC(=O)[C@H](C(C)C)NC1=O [Example 1322] ({CH2CO}-FYDWV[Bip]R[NMeA][NMeF][Dab]LVTCA-NH2; thioether N-14)	120
CC(C)C[C@@H]1NC(=O)[C@H](CC(C)C)NC(=O)[C@H](CCCNC(=N)N)NC(=O)[C@H](Cc2ccccc2)N(C)C(=O)[C@H](C)N(C)C(=O)[C@H](CCCNC(=N)N)NC(=O)[C@H](Cc2ccc(-c3ccccc3)cc2)NC(=O)[C@H](C(C)C)NC(=O)[C@H](Cc2c[nH]c3ccccc23)NC(=O)[C@H](CC(=O)O)NC(=O)[C@H](Cc2ccc(O)cc2)NC(=O)[C@H](Cc2ccccc2)NC(=O)CSC[C@@H](C(=O)NCC(N)=O)NC(=O)[C@H](CO)NC1=O [Example 1325] ({CH2CO}-FYDWV[Bip]R[NMeA][NMeF]RLLSCG-NH2; thioether N-14)	590
CC(C)C[C@@H]1NC(=O)[C@H](Cc2c[nH]c3ccccc23)NC(=O)[C@H](CC(=O)O)NC(=O)[C@H](Cc2ccc(O)cc2)NC(=O)[C@H](Cc2ccccc2)NC(=O)CSC[C@@H](C(=O)NCC(N)=O)NC(=O)[C@H](CO)NC(=O)[C@H](C(C)C)NC(=O)[C@H](CC(C)C)NC(=O)[C@H](CCCNC(=N)N)NC(=O)[C@H](Cc2ccccc2)N(C)C(=O)[C@H](C)N(C)C(=O)[C@H](CCCNC(=N)N)NC(=O)[C@H](Cc2ccc(-c3ccccc3)cc2)NC1=O [Example 1327] ({CH2CO}-FYDWL[Bip]R[NMeA][NMeF]RLVSCG-NH2; thioether N-14)	120
CC(C)C[C@@H]1NC(=O)[C@H](CCCNC(=N)N)NC(=O)[C@H](Cc2ccccc2)N(C)C(=O)[C@H](C)N(C)C(=O)[C@H](CCCNC(=N)N)NC(=O)[C@H](Cc2ccc(-c3ccccc3)cc2)NC(=O)[C@H](C(C)C)NC(=O)[C@H](Cc2c[nH]c3ccccc23)NC(=O)[C@H](CC(=O)O)NC(=O)[C@H](Cc2ccc(O)cc2)NC(=O)[C@H](Cc2ccccc2)NC(=O)CSC[C@@H](C(=O)NC(C)(C)C(N)=O)NC(=O)[C@H](CO)NC(=O)[C@H](C(C)C)NC1=O [Example 1328] ({CH2CO}-FYDWV[Bip]R[NMeA][NMeF]RLVSC[Aib]-NH2; thioether N-14)	480
CCC[C@H](NC(=O)[C@@H]1CSCC(=O)N[C@@H](Cc2ccccc2)C(=O)N[C@@H](Cc2ccc(O)cc2)C(=O)N[C@@H](CC(=O)O)C(=O)N[C@@H](Cc2c[nH]c3ccccc23)C(=O)N[C@@H](C(C)C)C(=O)N[C@@H](Cc2ccc(-c3ccccc3)cc2)C(=O)N[C@@H](CCCNC(=N)N)C(=O)N(C)[C@@H](C)C(=O)N(C)[C@@H](Cc2ccccc2)C(=O)N[C@@H](CCCNC(=N)N)C(=O)N[C@@H](CC(C)C)C(=O)N[C@@H](C(C)C)C(=O)N[C@@H](CO)C(=O)N1)C(N)=O [Example 1329] ({CH2CO}-FYDWV[Bip]R[NMeA][NMeF]RLVSC[Nva]-NH2; thioether N-14)	260
CC(C)C[C@@H]1NC(=O)[C@H](CCCNC(=N)N)NC(=O)[C@H](Cc2ccccc2)N(C)C(=O)[C@H](C)N(C)C(=O)[C@H](CCCNC(=N)N)NC(=O)[C@H](Cc2ccc(-c3ccccc3)cc2)NC(=O)[C@H](C(C)C)NC(=O)[C@H](Cc2c[nH]c3ccccc23)NC(=O)[C@H](CC(=O)O)NC(=O)[C@H](Cc2ccc(O)cc2)NC(=O)[C@H](Cc2ccccc2)NC(=O)CSC[C@@H](C(=O)NCC(N)=O)NC(=O)[C@H](CN)NC(=O)[C@H](C(C)C)NC1=O [Example 1330] ({CH2CO}-FYDWV[Bip]R[NMeA][NMeF]RLV[Dap]CG-NH2; thioether N-14)	390
CC(C)C[C@@H]1NC(=O)[C@H](CCCNC(=N)N)NC(=O)[C@H](Cc2ccccc2)N(C)C(=O)[C@H](C)N(C)C(=O)[C@H](CCCNC(=N)N)NC(=O)[C@H](Cc2ccc(-c3ccccc3)cc2)NC(=O)[C@H](C(C)C)NC(=O)[C@H](Cc2c[nH]c3ccccc23)NC(=O)[C@H](CC(=O)O)NC(=O)[C@H](Cc2ccc(O)cc2)NC(=O)[C@H](Cc2ccccc2)NC(=O)CSC[C@@H](C(=O)NCC(N)=O)NC(=O)[C@H](CCN)NC(=O)[C@H](C(C)C)NC1=O [Example 1332] ({CH2CO}-FYDWV[Bip]R[NMeA][NMeF]RLV[Dab]CG-NH2; thioether N-14)	790
